Consider four compounds from ChEMBL document CHEMBL1157191, “Syntheses and applications of fluorescent and biotinylated epolactaene derivatives: Epolactaene and its derivative induce disulfide formation” (Bioorg Med Chem, 2008).

The test system of the assay is BALL-1. Kind of assay: cytotoxicity against human BALL1 cells by MTT assay. Type of assay: functional, cell-based.

As to `CCCCCCCCCCCC(=O)[C@]12O[C@H]1C(C)(O)NC2=O` (some centres undefined), the IC50 was 1650 nM. This counts as single-digit micromolar.
As to `CCN(CC)c1ccc2cc(NC(=O)OCCCCCCCCCCCC(=O)[C@]34O[C@H]3C(C)(O)NC4=O)c(=O)oc2c1` (some centres undefined), the IC50 came to 1560 nM. This IC50 and that of the compound before are within 1.5-fold of each other.
Next, `CC1(O)NC(=O)[C@@]2(C(=O)CCCCCCCCCCCNC(=O)CCCC[C@@H]3SC[C@@H]4NC(=O)N[C@@H]43)O[C@@H]12` (some centres undefined): 48300 nM.
The same measure for `C\C=C(/C=C(C)/C=C/CC/C=C(\C)C(=O)[C@]12O[C@H]1C(C)(O)NC2=O)C(=O)OC` (some centres undefined) [EPOLACTAENE]: 3820 nM.

For orientation: IC50 means the point on the concentration scale where inhibition reaches its midpoint. A low value points to greater potency in that assay.
